Laboratory results reported in patent publication EP4671240A1, “SALT CONTAINING AROMATIC RING DERIVATIVE ANTAGONIST, PREPARATION METHOD THEREFOR, AND APPLICATION THEREOF” (Jiangsu Hansoh Pharmaceutical Group Co., Ltd., priority 2023, dated 2024).

Experiments:
[1] = target: T1, CYP450 2D6 (Homo sapiens, UniProt P10635); test: CYP enzyme single-point inhibition assay, 2D6; assay type: in vitro ADME; settings: human liver microsomes, single-point method
T1 construct: Human liver microsome incubation system was used; from tissue; host or cells: human liver microsomes
Experimental: (§1) Human liver microsome incubation system was used, and the single-point method was used to quickly predict the inhibition on CYP450 enzyme subtypes (1A2, 2C19, 2D6, 3A4-M, and 3A4-T) by compounds.
(§2) For 2.5 mM NADPH, 4.165 mg of NADPH (reduced nicotinamide adenine dinucleotide phosphate) was weighed and 100 mM phosphate buffer was added to a final volume of 2 mL. For 0.25 mg/mL microsomes, 50 µL of 20 mg/mL microsomes was mixed with […] of 100 mM phosphate buffer evenly.
(§3) The test example compounds were weighed, diluted to 10 mM with DMSO, and then diluted to 100 µM with 100 mM phosphate buffer.
(§4) • 1. Liver microsomes (40 µL), substrate (10 µL), and test compound (10 µL) were added to a 96-well plate, and the mixture was pre-incubated for 3 min. • 2. NADPH (40 µL) was added. • 3. At 20 min, acetonitrile stop solution containing internal standard (300 µL) was added. • 4. The mixture was centrifuged and the sample was loaded.

[2] = target: T2, CYP450 3A4-T (Homo sapiens, UniProt P08684); test: CYP enzyme single-point inhibition assay, 3A4-T; assay type: in vitro ADME; settings: human liver microsomes, single-point method
T2 construct: Human liver microsome incubation system was used; from tissue; host or cells: human liver microsomes
Experimental: as §1, §2, §3, §4

[3] = target: T3, ETA receptors (Homo sapiens, UniProt P25101); test: effect on calcium current in cells stably expressing ETA receptors (HEK293-ETA, FLIPR, antagonist); assay type: cell-based; settings: 11 concentration points 10 µM to 0.17 nM
T3 construct: host or cells: HEK293
T3 sequence (P25101 21-427): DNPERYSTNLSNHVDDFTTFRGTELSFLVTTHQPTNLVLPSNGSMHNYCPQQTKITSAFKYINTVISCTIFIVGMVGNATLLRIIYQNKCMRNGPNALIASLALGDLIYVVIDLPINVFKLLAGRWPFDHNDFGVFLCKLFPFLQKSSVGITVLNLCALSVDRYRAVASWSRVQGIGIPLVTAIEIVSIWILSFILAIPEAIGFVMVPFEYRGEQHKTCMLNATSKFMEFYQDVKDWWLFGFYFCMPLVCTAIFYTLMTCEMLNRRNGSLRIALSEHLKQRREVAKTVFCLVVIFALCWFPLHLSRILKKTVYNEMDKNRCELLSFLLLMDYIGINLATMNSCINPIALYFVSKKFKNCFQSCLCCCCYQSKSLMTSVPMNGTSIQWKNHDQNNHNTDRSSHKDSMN
Excerpt: Test example 2. Determination of the effect of the compounds of the present invention on calcium current in cells stably expressing ETA receptors 1. Experimental objective: To test the antagonistic effect of compounds on HEK293-ETA cell activity 2. […] Experimental data processing method: FLIPR Tetra was used to read and collect the fluorescence signal value (RFU). The maximum RFU value was used to calculate the percent activation data based on the readings of the Low control (DMSO control) and High control (100 nM positive compound) experimental groups {% activation rate = (RFUsample - RFUlow control) / (RFUhigh control - RFUlow control)×100}. […]

T2 sequence (P08684 whole entry): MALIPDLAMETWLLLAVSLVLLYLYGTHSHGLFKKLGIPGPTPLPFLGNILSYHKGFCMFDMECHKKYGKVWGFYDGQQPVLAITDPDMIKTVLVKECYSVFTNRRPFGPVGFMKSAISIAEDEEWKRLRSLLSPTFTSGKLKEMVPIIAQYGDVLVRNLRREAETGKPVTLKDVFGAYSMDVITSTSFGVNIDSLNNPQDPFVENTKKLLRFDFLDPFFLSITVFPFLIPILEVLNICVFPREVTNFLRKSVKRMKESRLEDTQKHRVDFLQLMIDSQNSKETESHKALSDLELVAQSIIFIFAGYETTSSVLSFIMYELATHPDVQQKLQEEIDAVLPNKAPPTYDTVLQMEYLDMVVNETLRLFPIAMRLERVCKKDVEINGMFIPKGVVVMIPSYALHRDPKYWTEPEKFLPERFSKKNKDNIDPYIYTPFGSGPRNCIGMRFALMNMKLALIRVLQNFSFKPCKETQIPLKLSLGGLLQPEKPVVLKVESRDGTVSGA
T1 sequence (P10635 whole entry): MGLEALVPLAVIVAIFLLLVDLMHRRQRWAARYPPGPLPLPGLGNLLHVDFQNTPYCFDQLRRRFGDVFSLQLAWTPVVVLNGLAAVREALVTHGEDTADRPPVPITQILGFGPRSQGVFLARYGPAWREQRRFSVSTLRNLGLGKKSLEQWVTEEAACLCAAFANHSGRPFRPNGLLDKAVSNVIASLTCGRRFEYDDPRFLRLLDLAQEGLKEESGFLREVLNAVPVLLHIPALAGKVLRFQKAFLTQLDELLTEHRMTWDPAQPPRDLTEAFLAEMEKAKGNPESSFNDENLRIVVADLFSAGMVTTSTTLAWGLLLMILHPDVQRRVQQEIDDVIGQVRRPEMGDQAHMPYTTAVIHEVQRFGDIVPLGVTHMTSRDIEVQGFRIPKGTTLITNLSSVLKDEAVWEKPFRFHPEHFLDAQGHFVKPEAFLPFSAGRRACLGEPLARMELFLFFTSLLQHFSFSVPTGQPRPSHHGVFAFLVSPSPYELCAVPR

| Compound | IC50 [1] [µM] | IC50 [2] [µM] | IC50 [3] [µM] |
| --- | --- | --- | --- |
| [2H]C([2H])(c1ccc(-c2ccccc2S(=O)(=O)Nc2noc(C)c2Cl)c(COCC)c1)N1C(=O)C2(CCCC2)N=C1CCCC [Example 2, 4'-((2-Butyl-4-oxo-1,3-diazaspiro[4.4]non-1-en-3-yl)methyl-d2)-N-(4-chloro-5-methylisoxazol-3-yl)-2'-(ethoxymethyl)-[1,1'-biphenyl]-2-sulfonamide] | > 100 | > 100 | 0.0151 |
| CCCCC1=NC2(CCCC2)C(=O)N1Cc1ccc(-c2ccccc2S(=O)(=O)Nc2noc(C)c2Cl)c(COCC)c1 [Example 8, 2-[4-[(2-Butyl-4-oxo-1,3-diazaspiro[4.4]non-1-en-3-yl)methyl]-2-(ethoxymethyl)phenyl]-N-(4-chloro-5-methyl-isoxazol-3-yl)benzenesulfonamide] | > 100 | > 100 | 0.0149 |
